These results are taken from US6685840B2, “Method for determining the dissolution rate of a solid water treatment product” (Ondeo Nalco Company, priority 2002, dated 2004).

Molecules are shown by their SMILES.

A short description of this data set: Dissolution (release) rate of the ingredients of a solid water treatment tablet in standard cooling water. It counts as physicochemical. Also noted: key: *: value was below detection limits for this moiety. The text has this:
After the solid water treatment product has been formed it must be tested to determine its dissolution rate in water. Test water that is formulated to closely match the type of water found in the industrial water system of interest is provided. For example, “standard” test water for cooling water in a cooling tower typically has the following features: 60 ppm Ca^2+, 18 ppm Mg^2+, 134 ppm HCO3^−, 53 ppm Cl^− and 72 ppm SO4^2−. A typical scale formation test for a model or simulation boiler typically has these concentrations of scaling contaminants in the boiler water; 10 ppm Calcium as CaCO3, 5 ppm Magnesium as CaCO3, 5 ppm silica as SiO2. Alkalinity such as caustic (NaOH) is added in sufficient quantity to maintain a pH of typically between 10.0 and 11.0 in the boiler water.
In order to determine the dissolution rate of the solid water treatment product the solid water treatment product is placed in the test water and allowed to dissolve. A fluorometer is provided and the fluorescent signal of the Fluorescent Tracer present in the solid water treatment product is measured using the fluorometer. The fluorescent signal is measured at regular intervals.
A tablet of solid cooling water treatment product of Formulation 1, {27.6% benzotriazole, 70.4% 1-hydroxyethylidene-1,1-diphosphonic acid and 2% 1,3,6,8-pyrenetetrasulfonic acid, sodium salt} is made. The tablet weighs 0.9081 grams. The tablet is placed in standard cooling water {60 ppm Ca^2+, 18 ppm Mg^2+, 134 ppm […] , 53 ppm Cl^31 and 72 ppm SO4^2−} and the dissolution rate of each ingredient in the table is measured. The dissolution rate of each ingredient present is measured using analytical techniques suitable for analyzing for each ingredient. The dissolution rate of the benzotriazole (abbreviated “BZT”) is measured using fluorometric analytical techniques, known in the art of analyzing triazoles. The dissolution rate of 1-hydroxyethylidene-1,1-diphosphonic acid (abbreviated “HEDP”) is measured using standard “colorimetric determination” analytical techniques, known in the art of analyzing for diphosphonic acids. The dissolution rate of the 1,3,6,8-pyrenetetrasulfonic acid, sodium salt (abbreviated “PTSA”) is measured using fluorometric analytical techniques.
The results of this test are shown in Table 1 Release rates for each ingredient are given in milligrams (‘mg”) per minute (“min.”).
The same tablet was made as was made in Example 1, except that this time, the tablet was coated with a polyethylene oxide material with a molecular weight of approximately 15,000 such that the final weight of finished tablet was 1.411 grams. The dissolution rate of the three ingredients in this tablet were determined, using the same analytical techniques as in Example 1.

Where [1] appears, read: Example 1 uncoated tablet of Formulation 1 (0.9081 g), standard cooling water, time 0 minutes.
Setting [2] is: Example 1 uncoated tablet of Formulation 1, standard cooling water, time 1 minutes.
[3] abbreviates: Example 1 uncoated tablet of Formulation 1, standard cooling water, time 5 minutes.
Setting [4] is: Example 1 uncoated tablet of Formulation 1, standard cooling water, time 10 minutes.
Setting [5] is: Example 1 uncoated tablet of Formulation 1, standard cooling water, time 15 minutes.
[6] abbreviates: Example 1 uncoated tablet of Formulation 1, standard cooling water, time 30 minutes.
[7] abbreviates: Example 1 uncoated tablet of Formulation 1, standard cooling water, time 60 minutes.
[8] abbreviates: Example 1 uncoated tablet of Formulation 1, standard cooling water, time 130 minutes.
The mark [9] stands for this setting: Example 2 tablet coated with polyethylene oxide (1.411 g), time 0 minutes.
Setting [10] is: Example 2 tablet coated with polyethylene oxide, time 5 minutes.
Where [11] appears, read: Example 2 tablet coated with polyethylene oxide, time 15 minutes.
Where [12] appears, read: Example 2 tablet coated with polyethylene oxide, time 30 minutes.
Where [13] appears, read: Example 2 tablet coated with polyethylene oxide, time 75 minutes, in mg/min.
The mark [14] stands for this setting: Example 2 tablet coated with polyethylene oxide, time 110 minutes, in mg/min.
The mark [15] stands for this setting: Example 2 tablet coated with polyethylene oxide, time 180 minutes, in mg/min.
Where [16] appears, read: Example 2 tablet coated with polyethylene oxide, time 40 minutes.
[17] abbreviates: Example 2 tablet coated with polyethylene oxide, time 50 minutes.
Where [18] appears, read: Example 2 tablet coated with polyethylene oxide, time 61 minutes, in mg/min.

As for `O=S(=O)([O-])c1cc(S(=O)(=O)[O-])c2ccc3c(S(=O)(=O)[O-])cc(S(=O)(=O)[O-])c4ccc1c2c43.[Na+].[Na+].[Na+].[Na+]` [PTSA, 1,3,6,8-pyrenetetrasulfonic acid, sodium salt], the “Release Rate” value is listed as “*” under setting [1]; “*” under setting [2]; 0.5925 mg per min under setting [3]; 0.98 mg per min under setting [4]; 0.5 mg per min under setting [5]; 0.143 mg per min under setting [6]. In addition, the “Release Rate” value by setting is: under setting [7], “*”; under setting [8], “*”; under setting [9], “*”; under setting [10], “*”; under setting [11], “*”; under setting [12], “*”. The “Release Rate” value reads like this: (Example 2 tablet coated with polyethylene oxide, time 40 minutes, in mg/min) 0.052; (Example 2 tablet coated with polyethylene oxide, time 50 minutes, in mg/min) 0.121; (Example 2 tablet coated with polyethylene oxide, time 61 minutes) 0.33 mg/min; under setting [13], 0.190; under setting [14], 0.0571; under setting [15], 0.00493.
In the case of `CC(O)(P(=O)(O)O)P(=O)(O)O` [HEDP, 1-hydroxyethylidene-1,1-diphosphonic acid], the “Release Rate” value was “*” under setting [1]; “*” under setting [2]; 10.5 mg per min under setting [3]; 20 mg per min under setting [4]; 11.4 mg per min under setting [5]; 0.933 mg per min under setting [6]. Further, the “Release Rate” value is, setting by setting: under setting [7], 1.03 mg per min; under setting [8], 0.0143 mg per min; under setting [9], “*”; under setting [10], “*”; under setting [11], “*”; under setting [12], “*”. The Release Rate runs as follows: under setting [16], 1.2 mg/min; under setting [17], 2.55 mg/min; under setting [18], 8.091; under setting [13], 4.893; (Example 2 tablet coated with polyethylene oxide, time 110 minutes) 1.7 mg/min; under setting [15], 0.329.
With `c1ccc2[nH]nnc2c1` [BZT, benzotriazole], the “Release Rate” value is, setting by setting: under setting [1], “*”; under setting [2], “*”; under setting [3], 8.75 mg per min; under setting [4], 13.8 mg per min; under setting [5], 11.4 mg per min; under setting [6], 2.167 mg per min. Further, the “Release Rate” value under setting [7] was 0.5 mg per min; the “Release Rate” value under setting [8] was 0.493 mg per min; the “Release Rate” value under setting [9] is on record as “*”; the “Release Rate” value under setting [10] is given as “*”; the “Release Rate” value under setting [11] is “*”; the “Release Rate” value under setting [12] is “*”. In addition, the Release Rate under setting [16] was determined as 0.2 mg/min; the Release Rate under setting [17] was determined as 2.6 mg/min; the “Release Rate” value under setting [18] amounted to 5.545; the “Release Rate” value under setting [13] amounted to 4.393; the “Release Rate” value under setting [14] is 0.829; the “Release Rate” value under setting [15] worked out at 0.236.
